Data: patent US8466289B2, “Heterocyclic sulfonamide derivatives” (Novartis AG, priority 2009, dated 2013)

How the values were obtained:
A375 cells = assay: cell viability assay in A375 cells using XTT; type: cell-based; details: Homo sapiens, A-375, 72 h, XTT read three days after compound addition
Method: The cell viability assay in A375 cells is set up in a 96-well plate format using XTT.
XTT is a yellow tetrazolium salt that is cleaved to an orange formazan dye by the mitochondria of metabolically active cells. The procedure allows for rapid determination in a microtitre plate, to give reproducible and sensitive results.
A375 cells are grown in DMEM media containing 10% FBS and 1 mM sodium pyruvate. Cells are trypsinized and seeded at 1000 cells/well. After allowing the cells to adhere overnight, compound is added to the wells at the following final concentrations: 10, 3, 1, 0.3, 0.1, 0.03, 0.01, 0.001, and 0.0001 μM. The assay is set up in triplicates for each concentration. DMSO concentrations are kept at 0.5%/well. Three days after compound addition, the XTT assay is performed. Wells are washed once with PBS. 100 μL of DMEM media without phenol red or FBS is added to each well. A working solution of XTT containing 1 mg/ml XTT and 100 μL of PMS (stock concentration 0.383 mg/ml) per 5 ml is prepared. 50 μL of the working solution of XTT is added to each well. Absorbance of the plate is read at 465 nm using a Spectramax 190 (Molecular Devices). The absorbance from wells with media and XTT alone, but without cells is considered the blank and subtracted from readings from all wells.
Percentage viability is calculated considering the blank subtracted value from wells treated with DMSO alone as 100% viable. GI50 values are calculated using Graphpad Prism, using non-linear regression curve fit for sigmoidal dose response (variable slope).
The cell viability assay is further described in Scudiero, et. al., Cancer Research (1988) 48, 4827-4833; Weislow, et. al., J. Natl. Cancer Institute, (1989) 81, 577-586; and Roehm, et. al., J. Immunol. Methods [1991]142:257-265.
(§1) The compounds of the above Examples were evaluated as inhibitors of the MAP kinase pathway in a BRAF-MEK-ERK enzymatic cascade assay and in the cell viability assay described above.

[1] = system: BRAF-MEK-ERK cascade (activated BRAF (V599E), unactive MEK1, unactive MAP Kinase 2/ERK2); assay: BRAF-MEK-ERK enzymatic cascade assay (TR-FRET); type: biochemical, human; details: compounds screened at 10 μM, 45 minutes pre-incubation with enzymes, 100 μM ATP
Excerpt: A BRAF-MEK-ERK cascade assay is used to evaluate the effects of the compounds as inhibitors of the MAP kinase pathway. An enzymatic cascade assay is set up using recombinant human activated BRAF (V599E) kinase (Cat No. 14-557), human full length unactive MEK1 kinase (Cat No. 14-706) and human full length unactive MAP Kinase 2/ERK2 (Cat No. 14-536) enzymes procured from Upstate. TR-FRET (Time resolved fluorescence resonance energy transfer) detection technology is used for the read out. The assay buffer solution contains 50 mM Tris pH 7.5, 10 mM MgCl2, 1 mM DTT, 0.01% Tween 20, 0.1 nM activated BRAF, 2 nM unactive MEK1, 10 nM unactive ERK2, 100 μM ATP and 500 nM long chain biotin-peptide substrate (LCB-FFKNIVTPRTPPP) in a 384 well format. The kinase reaction is stopped after 90 minutes with 10 mM EDTA and Lance detection mix (2 nM Eu-labeled phospho-serine/threonine antibody (Cat. No. AD0176-Perkin Elmer), 20 nM SA-APC (Cat No. CR130-100-Perkin Elmer) is added. The TR-FRET signal (Excitation at 340 nm, Emission at 615 nm and 665 nm) is read with 50 μs delay time on a Victor3 V fluorimeter. The data is calculated using the ratio of readings at 665 nm to 615 nm. The final concentration of DMSO is 2.5% in the assay. Compounds are screened at 10 μM concentration with pre-incubation of the enzymes in the presence of test compound for 45 minutes.
Each individual IC50 is determined using a 10 point dose response curve generated by GraphPad Prism software Version 4 (San Diego, Calif., USA) using non linear regression curve fit for sigmoidal dose response (variable slope).
These assays described above are fully detailed in Han, Shulin, et. al., Bioorganic & Medicinal Chemistry Letters (2005) 15, 5467-5473, and in Yeh, et. al., Clin Cancer Res (2007) 13 (5), 1576-1583.
as §1

Structure (SMILES) | GI50 (A375 cells) | % inhibition [1]
Cc1c(Nc2ccc(I)cc2F)c(NS(=O)(=O)C2CCC2)c2n(c1=O)CCS2 [Example 26A, Cyclobutanesulfonic acid [7-(2-fluoro-4-iodo-phenylamino)-6-methyl-5-oxo-2,3-dihydro-5H-thiazolo[3,2-a]pyridin-8-yl]-amide] | 156 nM | 100%
Cc1c(Nc2ccc(I)cc2F)c(NS(=O)(=O)C2(CCO)CC2)c2n(c1=O)CCO2 [Example 9A, 1-(2-Hydroxy-ethyl)-cyclopropanesulfonic acid [7-(2-fluoro-4-iodo-phenylamino)-6-methyl-5-oxo-2,3-dihydro-5H-oxazolo[3,2-a]pyridin-8-yl]-amide] | 19 nM | 100%
Cc1c(Nc2ccc(I)cc2F)c(NS(=O)(=O)C2CC2)c2n(c1=O)CCO2 [Example 7A, Cyclopropanesulfonic acid [7-(2-fluoro-4-iodo-phenylamino)-6-methyl-5-oxo-2,3-dihydro-5H-oxazolo[3,2-a]pyridin-8-yl]-amide] | 26 nM | 99%

Other lines, results leading:

GI50 (A375 cells) | % inhibition [1] | Structure (SMILES)
19 nM | 100% | Cc1c(Nc2ccc(I)cc2F)c(NS(=O)(=O)C2CC2)c2n(c1=O)CCN2 [Example 3A, Cyclopropanesulfonic acid [7-(2-fluoro-4-iodo-phenylamino)-6-methyl-5-oxo-1,2,3,5-tetrahydro-imidazo[1,2-a]pyridin-8-yl]-amide]
1380 nM | 100% | Cc1c(Nc2ccc(I)cc2F)c(NS(=O)(=O)C2CC(O)C2)c2n(c1=O)CCN2 (stereo not drawn) [Example 6A, 3-Hydroxy-cyclobutanesulfonic acid [7-(2-fluoro-4-iodo-phenylamino)-6-methyl-5-oxo-1,2,3,5-tetrahydro-imidazo[1,2-a]pyridin-8-yl]-amide]
293 nM | 100% | Cc1c(Nc2ccc(I)cc2F)c(NS(=O)(=O)C2(CC(O)CO)CC2)c2n(c1=O)CCN2 (stereo not drawn) [Example 5A, 1-(2,3-Dihydroxy-propyl)-cyclopropanesulfonic acid [7-(2-fluoro-4-iodo-phenylamino)-6-methyl-5-oxo-1,2,3,5-tetrahydro-imidazo[1,2-a]pyridin-8-yl]-amide]
